Article PMC5575254, “An allosteric ligand-binding site in the extracellular cap of K2P channels” (Nature Communications, 2017)
Positions count from the first letter of the chain named.

What was measured:
mutant TREK-1 channels [1] = target: T1, mutant TREK-1 channels (Homo sapiens, UniProt O95069, Q120A); assay: Whole-cell voltage clamp of mutant TREK-1 channels; type: cell-based; conditions: Q105A mutant
T1 construct: expressed in transfected cells; host or cells: CHO cells, transient transfection
T1 sequence (O95069 1-411 isoform O95069-2 Q105A): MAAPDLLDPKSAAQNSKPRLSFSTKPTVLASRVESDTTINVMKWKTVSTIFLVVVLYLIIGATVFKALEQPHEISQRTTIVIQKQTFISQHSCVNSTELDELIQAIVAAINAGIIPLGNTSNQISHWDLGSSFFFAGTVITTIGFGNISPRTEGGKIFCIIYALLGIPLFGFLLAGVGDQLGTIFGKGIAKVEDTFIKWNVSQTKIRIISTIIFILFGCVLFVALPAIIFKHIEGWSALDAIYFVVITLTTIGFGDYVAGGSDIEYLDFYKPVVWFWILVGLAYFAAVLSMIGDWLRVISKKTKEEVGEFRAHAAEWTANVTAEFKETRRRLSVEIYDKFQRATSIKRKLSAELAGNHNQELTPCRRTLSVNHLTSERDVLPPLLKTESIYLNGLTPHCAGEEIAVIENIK
Description: (§1) cDNA of the human TREK-1, TREK-2 and TRAAK channels were subcloned into the pEGFPN1 expression vector (Invitrogen), respectively. Mutations were introduced into TREK-1 or TRAAK by PCR using the QuickChange XL sitedirected mutagenesis kit (Agilent Technologies) and were subsequently confirmed by DNA sequencing.
(§2) Chinese hamster ovary (CHO) cells were provided by the Cell Bank of Chinese Academy of Sciences (Shanghai, China). CHO cells were maintained in DMEM/F12 (Gibco) supplemented with 10% fetal bovine serum (Gibco) and 100 μg ml^−1 penicillin-streptomycin (Cellgro) in a humidified incubator at 37 °C (5% CO2). For electrophysiology experiments, cells plated in 35 mm tissue culture dishes (Corning Incorporated) were transiently transfected with the plasmids using PolyJet™ reagent (SignaGen) according to the manufacturer’s instructions. Primers used in this study are listed in Supplementary Table 4.
(§3) All electrophysiological recordings were obtained using patch-clamp recordings in two different configurations: (1) whole cell for macroscopic current dose–response curves; and (2) outside-out and inside-out for macroscopic currents recordings.
(§4) All patch-clamp recordings were conducted 36–96 h after transfection with an Axopatch-200B amplifier (Molecular Devices) at room temperature (23–25 °C). The microelectrodes fashioned from 1.5 mm thin-walled borosilicate glass with filament were pulled from Flaming/Brown type micropipette puller (P-97; SUTTER INSTRUMENT) with the resistances of 3–7 MΩ (whole cell) or 7–15 MΩ (outside-out) when filled with a solution containing (in mM): 140 KCl, 2 MgCl2, 10 EGTA, 1 CaCl2, 10 HEPES (pH 7.3, adjusted with KOH). External solution contained (in mM): 150 NaCl, 5 KCl, 0.5 CaCl2, 1.2 MgCl2, 10 HEPES (pH 7.3, adjusted with NaOH). The current signals were filtered at 1 kHz and digitized at a 10 kHz sampling frequency by using DigiData 1440 A.
(§5) Data of whole-cell voltage clamp experiments were fitted using doseResp function. […]

mutant TREK-1 channels [2] = target: T2, mutant TREK-1 channels (Homo sapiens, UniProt O95069, Q98A); assay: Whole-cell voltage clamp of mutant TREK-1 channels; type: cell-based; conditions: Q83A mutant
T2 construct: expressed in transfected cells; host or cells: CHO cells, transient transfection
T2 sequence (O95069 1-411 isoform O95069-2 Q83A): T1 sequence (O95069 1-411 isoform O95069-2 Q105A) with Q83A, A105Q
Description: as §1, §2, §3, §4, §5

mutant TREK-1 channels [3] = target: T3, mutant TREK-1 channels (Homo sapiens, UniProt O95069, T94A); assay: Whole-cell voltage clamp of mutant TREK-1 channels; type: cell-based; conditions: T79A mutant
T3 construct: expressed in transfected cells; host or cells: CHO cells, transient transfection
T3 sequence (O95069 1-411 isoform O95069-2 T79A): T1 sequence (O95069 1-411 isoform O95069-2 Q105A) with T79A, A105Q
Description: as §1, §2, §3, §4, §5

[4] = tested on: cell surface TREK-1 expression; assay: Flow cytometry analysis of TREK-1 cell membrane expression; type: cell-based, CHO-K1 cells; conditions: 10 μM, 20, 40 min and 1 h incubation
Method: CHO-K1 cells were transfected with pFLAG-TREK1 for 24 h. After washed with phosphate-buffered saline (PBS), the cells were disassociated with a non-enzyme cell dissociation solution (Sigma). After 10 μM TKDC incubation for 20, 40 min and 1 h at room temperature, cell surface TREK-1 expression in CHO-K1 cells was analyzed by flow cytometry. Transfected cells expressing FLAG-tagged TREK-1 were incubated with monoclonal ANTI-FLAG® M2-FITC antibody (Sigma). Data were collected with a flow cytometer (FACS Calibur, BD Bioscience) and analyzed with Flow Jo.

## CS(=O)(=O)N(CC(=O)N1CCc2ccccc2C1)c1ccc(Cl)cc1 [TKDC, N-(4-cholorphenyl)-N-(2-(3,4-dihydrosioquinolin-2(1H)-yl)-2-oxoethyl)methanesulfonamide]
Mutant TREK-1 channels [1]
  IC50: 2.2 ± 0.5 µM
Mutant TREK-1 channels [2]
  IC50: 2.4 ± 0.6 µM
Mutant TREK-1 channels [3]
  IC50: 2.4 ± 0.4 µM
[4]
  cell surface signal of TREK-1 positive cells: did not obviously lose the cell surface signal
